This is an account of results in patent publication US20070219193A1, “ALKYLAMINE-SUBSTITUTED BICYCLIC ARYL COMPOUNDS USEFUL AS MODULATORS OF PPAR” (KALYPSYS, INC, priority 2006, published 2007).

Type in all cases: cell-based
One experiment has as its target T1, PPAR alpha (Homo sapiens, UniProt Q07869).
T1 construct: expressed in transfected cells; host or cells: HEK293
T1 sequence (Q07869 1-468): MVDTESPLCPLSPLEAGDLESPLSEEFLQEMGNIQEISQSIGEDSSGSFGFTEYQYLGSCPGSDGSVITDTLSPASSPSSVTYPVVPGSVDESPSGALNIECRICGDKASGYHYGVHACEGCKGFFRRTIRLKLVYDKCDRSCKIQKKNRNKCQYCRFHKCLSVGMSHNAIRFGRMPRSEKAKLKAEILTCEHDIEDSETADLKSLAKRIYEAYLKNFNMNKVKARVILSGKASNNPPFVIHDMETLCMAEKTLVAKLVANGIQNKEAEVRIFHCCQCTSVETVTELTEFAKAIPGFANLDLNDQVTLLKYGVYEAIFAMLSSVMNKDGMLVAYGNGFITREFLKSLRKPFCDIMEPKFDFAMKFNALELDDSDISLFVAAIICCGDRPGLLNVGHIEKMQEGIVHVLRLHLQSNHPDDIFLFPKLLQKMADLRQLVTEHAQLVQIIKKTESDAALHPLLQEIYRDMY
The experiment is described as follows: Full-length PPAR transcriptional activation assay (PPRE::Luciferase reporter, HEK293 cells), PPAR alpha. Conditions: transfected HEK293 cells, species of receptor not given. How it is done:
(§1) HEK293 cells were seeded the day before transfection into 384-well plates at a cell density of 6,000 cells per well in 40 μl assay medium I (phenol red-free DMEM containing 4% charcoal-dextran stripped FBS, 1% Penicillin-Streptomycin and 1% GlutaMax-1). Then 25 ng of PPRE::Luciferase reporter plasmid, an expression plasmid (25 pg of PPARα, or 40 pg of PPARδ, or 75 pg of PPARγ2), and an appropriate amount of the plasmid pUC19 to bring the total DNA amount to 50 ng was added to 20 μl of phenol-red free DMEM and 150 nL of Fugene 6 and incubated for 30 minutes. The transfection mixtures were then added to the cells and incubated for three hours. 10 μl of test agents in 5% DMSO were then added to the cells and incubated at 37° C. for an additional 18 hours. Luciferase activity was then assayed by adding 25 μl/well of Britelite (Perkin Elmer) according to the manufacturer's protocol and relative light output was measured with an Analyst GT plate reader (Molecular Devices). All experimental points were done in triplicate and the assays were repeated at least 3 times.
(§2) HEK293 cells were seeded the day before transfection in […] dishes at a density of 9×10^6 cells/dish and incubated at 37° C., 10% CO2 for 16-24 hours. Then, […] of PPRE::Luciferase reporter plasmid, an expression plasmid (7.5 ng of PPARα, or 7.5 ng of PPARδ, or 75 ng of PPARγ2), and an appropriate amount of the plasmid pUC19 to bring the total DNA amount to […] were mixed with 54 μl of Fugene 6 in 2 mls of phenol red-free DMEM and incubated for 30 minutes. Transfection mixtures were then incubated with the cells for 18 hours. Cells were then replated into sterile, white TC treated 384-well assay plates at a cell density of 24×10^3 cells/well in 40 μl of assay medium II (phenol-red free DMEM containing 3% charcoal/dextran-stripped FBS, 1% Penicillin-Streptomycin and 1% GlutaMax-1) and incubated at 37° C. for 6 hours. 10 μl of test agents in 5% DMSO were then added to the cells and incubated at 37° C. for an additional 18 hours. Luciferase activity was then assayed by adding 30 μl/well of Britelite (Perkin Elmer) according to the manufacturer's protocol and relative light output was measured with an Analyst GT plate reader (Molecular Devices). All experimental points were done in triplicate and the assays were repeated 3 times.

Another experiment addresses T2, PPAR delta (Homo sapiens, UniProt Q03181).
T2 construct: expressed in transfected cells; host or cells: HEK293
T2 sequence (Q03181 1-441): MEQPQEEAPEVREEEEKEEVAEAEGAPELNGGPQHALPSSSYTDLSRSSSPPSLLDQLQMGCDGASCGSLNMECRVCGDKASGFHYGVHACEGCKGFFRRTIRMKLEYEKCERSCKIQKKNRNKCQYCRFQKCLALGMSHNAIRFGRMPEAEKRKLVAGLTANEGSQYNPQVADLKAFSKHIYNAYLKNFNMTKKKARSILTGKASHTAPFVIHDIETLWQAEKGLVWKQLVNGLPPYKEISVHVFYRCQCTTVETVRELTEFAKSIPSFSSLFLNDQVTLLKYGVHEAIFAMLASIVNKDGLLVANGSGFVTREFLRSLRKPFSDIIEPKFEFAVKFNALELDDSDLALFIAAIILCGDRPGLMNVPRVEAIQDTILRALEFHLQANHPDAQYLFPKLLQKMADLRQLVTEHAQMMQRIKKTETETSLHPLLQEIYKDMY
Kind of experiment: Full-length PPAR transcriptional activation assay (PPRE::Luciferase reporter, HEK293 cells), PPAR delta. Conditions: transfected HEK293 cells, species of receptor not given. How it is done:
as §1, §2

Another experiment concerns the target T3, PPAR gamma (Homo sapiens, UniProt P37231).
T3 construct: expressed in transfected cells; host or cells: HEK293
T3 sequence (P37231 1-505): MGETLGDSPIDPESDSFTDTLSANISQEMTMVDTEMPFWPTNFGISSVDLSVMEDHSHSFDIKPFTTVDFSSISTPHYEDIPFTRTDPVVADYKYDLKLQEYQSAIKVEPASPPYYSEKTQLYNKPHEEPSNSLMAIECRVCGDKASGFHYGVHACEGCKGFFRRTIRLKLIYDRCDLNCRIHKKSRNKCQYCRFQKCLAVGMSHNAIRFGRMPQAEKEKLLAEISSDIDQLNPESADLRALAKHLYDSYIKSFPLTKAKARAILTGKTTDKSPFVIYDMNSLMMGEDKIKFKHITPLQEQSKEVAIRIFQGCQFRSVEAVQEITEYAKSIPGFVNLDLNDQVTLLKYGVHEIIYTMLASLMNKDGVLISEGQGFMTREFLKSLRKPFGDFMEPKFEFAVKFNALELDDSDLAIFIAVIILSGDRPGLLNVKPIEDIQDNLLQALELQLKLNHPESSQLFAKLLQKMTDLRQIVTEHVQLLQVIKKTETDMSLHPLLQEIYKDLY
The experiment is described as follows: Full-length PPAR transcriptional activation assay (PPRE::Luciferase reporter, HEK293 cells), PPAR gamma. Particulars: transfected HEK293 cells (PPARγ2 plasmid), species of receptor not given. Here is the method:
as §1, §2

As for `CCc1cnc(N(CCc2ccc(C(F)(F)F)cc2)CCN2CCc3ccc(CC(=O)O)cc3C2)nc1` [Example 8, [2-(2-{(5-Ethyl-pyrimidin-2-yl)-[2-(4-trifluoromethyl-phenyl)-ethyl]-amino}-ethyl)-1,2,3,4-tetrahydro-isoquinolin-7-yl]-acetic acid], the EC50 is > 1 µM at PPAR alpha, ≤ 1 µM on PPAR delta and > 1 µM at PPAR gamma.

As to `CCc1cnc(N(CCCN2CCc3ccc(CC(=O)O)cc3C2)CCc2ccc(C(F)(F)F)cc2)nc1` [Example 9, [2-(3-{(5-Ethyl-pyrimidin-2-yl)-[2-(4-trifluoromethyl-phenyl)-ethyl]-amino}-propyl)-1,2,3,4-tetrahydro-isoquinolin-7-yl]-acetic acid], the EC50 on PPAR alpha was > 1 µM; on PPAR delta, ≤ 1 µM; on PPAR gamma, > 1 µM.

For `CCc1cnc(N(CCCC2CCc3ccc(CC(=O)O)cc3O2)Cc2ccc(C(F)(F)F)cc2)nc1` (stereo not drawn) [Example 10, (2-{3-[(5-Ethyl-pyrimidin-2-yl)-(4-trifluoromethyl-benzyl)-amino]-propyl}-chroman-7-yl)-acetic acid], the EC50 was > 1 µM on PPAR alpha, ≤ 1 µM at PPAR delta and ≤ 1 µM at PPAR gamma.

As for `CCc1cnc(N(CCCC2CCc3c(CC(=O)O)cccc3O2)Cc2ccc(C(F)(F)F)cc2)nc1` (stereo not drawn) [Example 11, (2-{3-[(5-Ethyl-pyrimidin-2-yl)-(4-trifluoromethyl-benzyl)-amino]-propyl}-chroman-5-yl)-acetic acid], the results for the EC50 on PPAR alpha, at PPAR delta and on PPAR gamma were > 1 µM, ≤ 1 µM and ≤ 1 µM, respectively.

As for `CCc1cnc(N(CCCC2CCc3ccc(CC(=O)O)cc3O2)Cc2ccc(OC(F)(F)F)cc2)nc1` (stereo not drawn) [Example 12, 2-(2-(3-((5-Ethylpyrimidin-2-yl)(4-(trifluoromethoxy)benzyl)amino)propyl)chroman-7-yl)acetic acid], the values for the EC50 at PPAR alpha, on PPAR delta and on PPAR gamma were > 1 µM, ≤ 1 µM and ≤ 1 µM, respectively.

For `CCc1cnc(N(CCCC2CCc3c(CC(=O)O)cccc3O2)Cc2ccc(OC(F)(F)F)cc2)nc1` (stereo not drawn) [Example 13, 2-(2-(3-((5-Ethylpyrimidin-2-yl)(4-(trifluoromethoxy)benzyl)amino)propyl)chroman-5-yl)acetic acid], the EC50 was > 1 µM at PPAR alpha, ≤ 1 µM at PPAR delta and ≤ 1 µM on PPAR gamma.

Turning to `CCc1cnc(N(CCCC2CCc3ccc(CC(=O)O)cc3O2)CCc2ccc(OC(F)(F)F)cc2)nc1` (stereo not drawn) [Example 14, 2-(2-(3-((5-Ethylpyrimidin-2-yl)(4-(trifluoromethoxy)phenethyl)amino)propyl)chroman-7-yl)acetic acid], the EC50 at PPAR alpha is > 1 µM; on PPAR delta, ≤ 1 µM; at PPAR gamma it was ≤ 1 µM.

For `CCc1cnc(N(CCCC2CCc3c(CC(=O)O)cccc3O2)CCc2ccc(OC(F)(F)F)cc2)nc1` (stereo not drawn) [Example 15, 2-(2-(3-((5-Ethylpyrimidin-2-yl)(4-(trifluoromethoxy)phenethyl)amino)propyl)chroman-5-yl)acetic acid], the EC50 on PPAR alpha is > 1 µM; at PPAR delta it was ≤ 1 µM; on PPAR gamma, ≤ 1 µM.

Consider `CCc1cnc(N(CCC2CCc3ccc(CC(=O)O)cc3O2)Cc2ccc(C(F)(F)F)cc2)nc1` (stereo not drawn) [Example 16, 2-(2-(2-((5-ethylpyrimidin-2-yl)(4-(trifluoromethyl)benzyl)amino)ethyl)chroman-7-yl)acetic acid], for which the EC50 on PPAR alpha, at PPAR delta and on PPAR gamma was ≤ 1 µM each time.

Regarding `CCc1cnc(N(CCC2CCc3c(CC(=O)O)cccc3O2)Cc2ccc(C(F)(F)F)cc2)nc1` (stereo not drawn) [Example 17, 2-(2-(2-((5-ethylpyrimidin-2-yl)(4-(trifluoromethyl)benzyl)amino)ethyl)chroman-5-yl)acetic acid], the EC50 on PPAR alpha, at PPAR delta and on PPAR gamma was ≤ 1 µM each time.
